Laboratory results from US20240115221A1, “POSITRON IMAGING TOMOGRAPHY IMAGING AGENT C[…] METHOD FOR BACTERIAL INFECTION” (The Research Foundation for the State University of New York, priority 2016, published 2024).

Experiments:
[1] = test system: several bacterial species; assay: Antibacterial activity for several bacterial species; type: cell-based
[2] = molecular target: T1, dihydropteroate synthase (DHPS) from S. aureus (saDHPS) (Staphylococcus aureus, UniProt O05701); assay: Coupled assay, kinetic parameters for saDHPS; type: biochemical
T1 construct: made in house
Experimental: (§1) Expressed and purified dihydropteroate synthase (DHPS) from S. aureus (saDHPS) was cloned. DHPS is the enzyme that installs PABA (p-aminobenzoic acid) in the folate biosynthesis pathway (Scheme 2). […] Using a coupled assay, it was determined that the kinetic parameters for saDHPS with PABA, PAS and F-PABA. […] Since PAS is an antibacterial compound whose mechanism of action may be related for the ability of this compound to compete with PABA for DHPS, we determined the antibacterial activity and cytotoxicity of F-PABA for several bacterial species as well as Vero cells. In each case no growth inhibition was observed up to 200 μg/ml.

[3] = test system: M. tuberculosis; assay: MIC determination (antibacterial activity); type: cell-based; conditions: Mycobacterium tuberculosis
Experimental: as §1

[4] = test system: E. coli; assay: MIC determination (antibacterial activity); type: cell-based; conditions: Escherichia coli
Experimental: as §1

[5] = test system: S. aureus; assay: MIC determination (antibacterial activity); type: cell-based; conditions: Staphylococcus aureus
Experimental: as §1

[6] = test system: Vero cells; assay: Cytotoxicity for Vero cells; type: cell-based
Experimental: as §1

[7] = test system: methicillin sensitive S. aureus (MSSA, Newman); assay: Uptake of [18F]F-PABA by bacteria; type: cell-based
Excerpt: (§2) The ability of different bacterial species to take up [^18F] F-PABA was studied. The radiotracer accumulated in both methicillin sensitive S. aureus (MSSA, Newman) and methicillin-resistant S. aureus (MRSA), as well as the Gram negative bacteria E. coli and Klebsiela pneumoniae.
(§3) In contrast, [^18F]F-PABA was not taken up by Enterococcus faecalis. E. faecalis has a folate salvage pathway and can take up folate from the environment. Thus, folic acid biosynthesis is dispensable in this organism, which also explains why sulfonamides are not used to treat infection by E. faecalis.

[8] = test system: S. aureus; assay: Rat triceps infection, tracer accumulation and bacterial load under vancomycin treatment
Excerpt: A key goal is to identify a tracer that can be used to quantify bacterial load and monitor the change in bacterial load during and following antibiotic treatment.

[9] = test system: Enterococcus faecalis; assay: Uptake of [18F]F-PABA by bacteria; type: cell-based
Excerpt: as §3

[10] = test system: E. coli; assay: Uptake of [18F]F-PABA by bacteria; type: cell-based
Excerpt: as §2

[11] = test system: methicillin-resistant S. aureus (MRSA); assay: Uptake of [18F]F-PABA by bacteria; type: cell-based
Excerpt: as §2

[12] = test system: Klebsiela pneumoniae; assay: Uptake of [18F]F-PABA by bacteria; type: cell-based
Excerpt: as §2

[13] = test system: Newman S. aureus; assay: Rat triceps S. aureus infection model, PET imaging and ex vivo counting; type: in vivo
Experimental: Initial in vivo studies focused on soft tissue models of MSSA infection. This included a mouse thigh infection model and rat triceps model. […] Fifty μL of 10^9 CFU of Newman S. aureus BHI culture was injected into the right triceps of a rat. After 10-15 hr the rats were imaged following iv administration of 0.8-1.2 mCi of [^18F]F-PABA. The images clearly show the accumulation of radioactivity in the right but not the left triceps. In addition to monitoring the time course of [^18F]F-PABA biodistribution, we also quantified tracer levels by postmortem ex vivo counting. […] At 60 min tracer levels were 5.4× higher in the infected right triceps compared to the uninfected left triceps. This compares favorably with other tracers.

[14] = test system: Newman S. aureus; assay: Rat triceps infection versus sterile inflammation (heat-killed S. aureus); type: in vivo; conditions: right triceps infected, left triceps heat-killed S. aureus
Experimental: One of the main limitations of using FDG to image infection is that FDG accumulates in the mammalian cells involved in the inflammatory response to infection. It was analyzed how inflammation affected the biodistribution of [^18F]F-PABA by generating an inflammatory response using 50 μL of […] of Newman S. aureus heat-killed bacteria.
accumulation of [^18F]F-PABA at the site of infection is likely not due to uptake by cells involved in the inflammatory response.

[15] = after a further 3 doses of vancomycin

T1 sequence (O05701 whole entry): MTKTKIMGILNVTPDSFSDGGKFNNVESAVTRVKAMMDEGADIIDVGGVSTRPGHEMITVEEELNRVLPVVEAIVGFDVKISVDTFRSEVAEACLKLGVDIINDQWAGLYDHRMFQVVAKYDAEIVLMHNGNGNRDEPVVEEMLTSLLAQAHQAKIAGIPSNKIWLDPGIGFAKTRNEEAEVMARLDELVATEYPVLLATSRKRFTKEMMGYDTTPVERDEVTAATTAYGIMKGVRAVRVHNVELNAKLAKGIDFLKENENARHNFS

Nc1ccc(C(=O)O)c(F)c1 [2-F-PABA, 2-fluoro-4-aminobenzoic acid]
MIC ([1]; discussion, species not named): > 100 µg/mL | concentration up to which no growth inhibition was observed ([1]; several bacterial species): > 200 µg/mL | antibacterial activity ([1]; summary of Table 1): no antibacterial activity | substrate for saDHPS [2]: alternative substrate for saDHPS | MIC [3]: > 100 µg/mL | MIC [4]: > 200 µg/mL | MIC [5]: > 200 µg/mL | concentration up to which no growth inhibition was observed (cytotoxicity) [6]: > 200 µg/mL

Nc1ccc(C(=O)O)c([18F])c1 [[^18F]F-PABA, 4-Amino-2-[^18f]-fluorobenzoic acid]
uptake of radiotracer ([7]; heat-killed MSSA cells): unable to take up | uptake of radiotracer ([7]; viable MSSA (Newman)): accumulated | tracer accumulation in infected triceps ([8]; after 3 doses of vancomycin): 0.015±0.005 %1D/cc | decrease in tracer levels ([8]; after 3 doses of vancomycin versus before treatment): ~3 fold | tracer accumulation in infected triceps [8, 15]: 0.013±0.002 % 10/cc | tracer accumulation in infected triceps ([8]; before treatment): 0.051±0.008 %1D/cc | tracer levels in the uninfected triceps ([8]; uninfected triceps): 0.007±0.001 %1D/cc | uptake of radiotracer [9]: not taken up | uptake of radiotracer [10]: accumulated | uptake of radiotracer [11]: accumulated | uptake of radiotracer [12]: accumulated | tracer levels in infected right triceps compared to uninfected left triceps ([13]; iv 0.8-1.2 mCi, at 60 min): 5.4 × | biodistribution of tracer ([13]; iv, postmortem ex vivo counting): distributed to all tissues and organs with the exception of the brain | radiotracer levels at site of infection compared to site of sterile inflammation [14]: 10 fold

CN[C@H](CC(C)C)C(=O)N[C@H]1C(=O)N[C@@H](CC(N)=O)C(=O)N[C@H]2C(=O)N[C@H]3C(=O)N[C@H](C(=O)N[C@H](C(=O)O)c4cc(O)cc(O)c4-c4cc3ccc4O)[C@H](O)c3ccc(c(Cl)c3)Oc3cc2cc(c3O[C@@H]2O[C@H](CO)[C@@H](O)[C@H](O)[C@H]2O[C@H]2C[C@](C)(N)[C@H](O)[C@H](C)O2)Oc2ccc(cc2Cl)[C@H]1O [vancomycin, reference compound]
bacterial burden of infected triceps ([8]; after 3 doses of vancomycin): 8.1±0.3 Log10 CFU | decrease in bacterial burden ([8]; after 3 doses of vancomycin): ~3 logs | bacterial burden of infected triceps [8, 15]: 7.0±0.9 Log10 CFU | additional decrease in bacterial burden ([8]; further 3 doses of vancomycin): 1 log
